Reference: patent US9751837B2, “Kinase inhibitors” (RESPIVERT LIMITED, priority 2014, dated 2017)
Converted amounts (≈) assume the structure as drawn.

What was measured:
Jurkat cells = assay: Cell cytotoxicity assay (r); format: cell-based, human; settings: 24 hours
Description: 1×10^5 Jurkat cells (immortalised human T lymphocytes) are added to the appropriate number of wells of a 96 well plate in 100 μL of media (RPMI supplemented with 10% foetal bovine serum). 1 μL of DMSO control (final concentration 1.0% v/v) or test compound (final concentration 20, 5 or 1 μg/mL) is added to the wells and incubated at 37° C., 5% CO2. After 24 hours, the plate is centrifuged at 1200 rpm for 3 minutes and the supernatant discarded. Cells are then resuspended in 150 μL (final concentration 7.5 μg/mL) of propidium iodide (PI) in PBS and incubated at 37° C., 5% CO2 for 15 minutes. After 15 minutes, cells are analysed by flow cytometry (BD accuri) using the FL3 window. The % viability is calculated as the % of cells that are PI negative in the test wells normalised to the DMSO control.

[1] = Solubility in fasted-state simulated colonic fluid (FaSSCoF) at pH 6.5; format: physicochemical; settings: 25 °C, pH 6.5, fassgf or other biorelevant, thermodynamic from solid
How it was run: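 Compounds were suspended at up to 2-10 mg/mL in pH 6.5 Tris/maleate FaSSCoF containing a five-bile-acid mixture, phosphatidylcholine, palmitic acid and BSA. After 24 h equilibration at 25° C the suspension was filtered and the filtrate quantified by HPLC peak area against a standard.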

[2] = pH 6.5 FaSSCoF Solubility (mg/mL) Run 1
[3] = pH 6.5 FaSSCoF Solubility (mg/mL) Run 2

SMILES | solubility thermodynamic at 24 h [1, 2] [µg/mL] | solubility thermodynamic at 24 h [1, 3] [µg/mL] | solubility thermodynamic at 24 h ([1]; pH 6.5 FaSSCoF Solubility (mg/mL) Run 3) [µg/mL] | solubility thermodynamic at 24 h ([1]; pH 6.5 FaSSCoF Solubility (mg/mL) Run 4) [µg/mL] | % Viability at 5 μg/mL (Jurkat cells) [%] | % Viability at 20 μg/mL (Jurkat cells) [%]
COc1cc(Nc2cc(Oc3ccc(NC(=O)Nc4cc(C(C)(C)C)cc(NS(C)(=O)=O)c4OC)c4ccccc34)ccn2)ccc1-n1ccccc1=O [Example 31, N-(5-(tert-Butyl)-2-methoxy-3-(3-(4-((2-((3-methoxy-4-(2-oxopyridin-1(2H)-yl)phenyl)amino)-pyridin-4-yl)oxy)naphthalen-1-yl)ureido)phenyl)methanesulfonamide] | 3 (≈ 4.01 µM) | 3 (≈ 4.01 µM) |  |  |  | 99.0
COc1cc(Nc2cc(Oc3ccc(NC(=O)Nc4cc(C(C)(C)C)cc(NS(C)(=O)=O)c4OC)c4ccccc34)ccn2)cc(OC)c1C(=O)NCC1CCN(C)CC1 [17(ca), 4-((4-((4-(3-(5-(tert-Butyl)-2-methoxy-3-(methylsulfonamido)phenyl)ureido)naphthalen-1-yl)oxy)pyridin-2-yl)amino)-2,6-dimethoxy-N-((1-methylpiperidin-4-yl)methyl)benzamide] | 2 (≈ 2.38 µM) | 2 (≈ 2.38 µM) |  |  | 94.0 | 
COc1cc(Nc2nccc(Oc3ccc(NC(=O)Nc4cc(C(C)(C)C)cc(NS(C)(=O)=O)c4OC)c4ccccc34)n2)cc(OC)c1C(=O)NCCN1CCN(C)CC1 [17(az), 4-((4-((4-(3-(5-(tert-Butyl)-2-methoxy-3-(methylsulfonamido)phenyl)ureido)naphthalen-1-yl)oxy)pyrimidin-2-yl)amino)-2,6-dimethoxy-N-(2-(4-methylpiperazin-1-yl)ethyl)benzamide] | 1 (≈ 1.17 µM) | 1 (≈ 1.17 µM) |  |  |  | 4.5
COc1cc(Nc2cc(Oc3ccc(NC(=O)Nc4cc(C(C)(C)C)cc(NS(C)(=O)=O)c4OC)c4ccccc34)ccn2)cc(OC)c1C(=O)NCCN(C)C [Example 39, 4-((4-((4-(3-(5-(tert-Butyl)-2-methoxy-3-(methylsulfonamido)phenyl)ureido)naphthalen-1-yl)oxy)pyridin-2-yl)amino)-N-(2-(dimethylamino)ethyl)-2,6-dimethoxybenzamide] | 222 (≈ 278 µM) | 247 (≈ 309 µM) | 73 (≈ 91.3 µM) | 97 (≈ 121 µM) |  | 1.5
COc1cc(Nc2cc(Oc3ccc(NC(=O)Nc4cc(C(C)(C)C)cc(NS(C)(=O)=O)c4OC)c4ccccc34)ccn2)ccc1C(=O)NCCOCCO [17(bm), 4-((4-((4-(3-(5-(tert-Butyl)-2-methoxy-3-(methylsulfonamido)phenyl)ureido)naphthalen-1-yl)oxy)pyridin-2-yl)amino)-N-(2-(2-hydroxyethoxy)ethyl)-2-methoxybenzamide] | 5 (≈ 6.35 µM) | 5 (≈ 6.35 µM) |  |  | 0.2 | 0.5
COc1cc(Nc2cc(Oc3ccc(NC(=O)Nc4cc(C(C)(C)C)cc(NS(C)(=O)=O)c4OC)c4ccccc34)ccn2)ccc1C(=O)NC(CO)(CO)CO [17(cm), 4-((4-((4-(3-(5-(tert-Butyl)-2-methoxy-3-(methylsulfonamido)phenyl)ureido)naphthalen-1-yl)oxy)pyridin-2-yl)amino)-N-(1,3-dihydroxy-2-(hydroxymethyl)propan-2-yl)-2-methoxybenzamide] | 8 (≈ 9.96 µM) | 9 (≈ 11.2 µM) |  |  | 77.0 | 
COc1cc(Nc2nccc(Oc3ccc(NC(=O)Nc4cc(C(C)(C)C)cc(NS(C)(=O)=O)c4OC)c4ccccc34)n2)ccc1C(=O)NCCCN1CCOCC1 [17(ao), 4-((4-((4-(3-(5-(tert-Butyl)-2-methoxy-3-(methylsulfonamido)phenyl)ureido)naphthalen-1-yl)oxy)pyrimidin-2-yl)amino)-2-methoxy-N-(3-morpholinopropyl)benzamide] | 9 (≈ 10.9 µM) | 9 (≈ 10.9 µM) |  |  |  | 1.6

Further lines, with some results ahead:

solubility thermodynamic at 24 h [1, 2] [µg/mL] | solubility thermodynamic at 24 h [1, 3] [µg/mL] | solubility thermodynamic at 24 h ([1]; pH 6.5 FaSSCoF Solubility (mg/mL) Run 3) [µg/mL] | solubility thermodynamic at 24 h ([1]; pH 6.5 FaSSCoF Solubility (mg/mL) Run 4) [µg/mL] | SMILES | % Viability at 5 μg/mL (Jurkat cells) [%] | % Viability at 20 μg/mL (Jurkat cells) [%]
9 (≈ 9.57 µM) | 6 (≈ 6.38 µM) |  |  | COc1cc(Nc2cc(Oc3ccc(NC(=O)Nc4cc(C(C)(C)C)cc(NS(C)(=O)=O)c4OC)c4ccccc34)ccn2)ccc1C(=O)NCCN1CCN(C(=O)CC[C@H](N)C(=O)O)CC1 [17(cl), (S)-2-Amino-5-(4-(2-(4-((4-((4-(3-(5-(tert-butyl)-2-methoxy-3-(methylsulfonamido)-phenyl)ureido)naphthalen-1-yl)oxy)pyridin-2-yl)amino)-2-methoxybenzamido)ethyl)piperazin-1-yl)-5-oxopentanoic acid] | 94.0 | 
9 (≈ 10.7 µM) | 9 (≈ 10.7 µM) |  |  | COc1c(NC(=O)Nc2ccc(Oc3ccnc(Nc4ccc(C(=O)NCCN5CCN(C)CC5)c(N(C)C)c4)c3)c3ccccc23)cc(C(C)(C)C)cc1NS(C)(=O)=O [17(bq), 4-((4-((4-(3-(5-(tert-Butyl)-2-methoxy-3-(methylsulfonamido)phenyl)ureido)naphthalen-1-yl)oxy)pyridin-2-yl)amino)-2-(dimethylamino)-N-(2-(4-methylpiperazin-1-yl)ethyl)benzamide] |  | 2.0
< 1 | < 1 |  |  | COc1cc(Nc2nccc(Oc3ccc(NC(=O)Nc4cc(C(C)(C)C)cc(NS(C)(=O)=O)c4OC)c4ccccc34)n2)ccc1C(=O)NCCCN1CCN(C)CC1 [17(ap), 4-((4-((4-(3-(5-(tert-Butyl)-2-methoxy-3-(methylsulfonamido)phenyl)ureido)naphthalen-1-yl)oxy)pyrimidin-2-yl)amino)-2-methoxy-N-(3-(4-methylpiperazin-1-yl)propyl)benzamide] |  | 0.6
16 (≈ 19 µM) | 19 (≈ 22.6 µM) |  |  | COc1cc(Nc2cc(Oc3ccc(NC(=O)Nc4cc(C(C)(C)C)cc(NS(C)(=O)=O)c4OC)c4ccccc34)ccn2)ccc1C(=O)NCCC1(O)CCN(C)CC1 [17(bg), 4-((4-((4-(3-(5-(tert-Butyl)-2-methoxy-3-(methylsulfonamido)phenyl)ureido)naphthalen-1-yl)oxy)pyridin-2-yl)amino)-N-(2-(4-hydroxy-1-methylpiperidin-4-yl)ethyl)-2-methoxy benzamide] | 60.0 | 0.3
23 (≈ 28.4 µM) | 24 (≈ 29.7 µM) |  |  | COc1cc(Nc2cc(Oc3ccc(NC(=O)Nc4cc(NS(C)(=O)=O)cc(C(C)(C)C)c4)c4ccccc34)ccn2)ccc1C(=O)NCCCN1CCN(C)CC1 [17(bp), 4-((4-((4-(3-(3-(tert-Butyl)-5-(methylsulfonamido)phenyl)ureido)naphthalen-1-yl)oxy)pyridin-2-yl)amino)-2-methoxy-N-(3-(4-methylpiperazn-1-yl)propyl)benzamide] | 41.0 | 2.0
< 1 | < 1 |  |  | COc1cc(Nc2nccc(Oc3ccc(NC(=O)Nc4cc(C(C)(C)C)cc(NS(C)(=O)=O)c4OC)c4ccccc34)n2)ccc1C(=O)NCCN1CCN(C)CC1 [17(aq), 4-((4-((4-(3-(5-(tert-Butyl)-2-methoxy-3-(methylsulfonamido)phenyl)ureido)naphthalen-1-yl)oxy)pyrimidin-2-yl)amino)-2-methoxy-N-(2-(4-methylpiperazin-1-yl)ethyl)benzamide] | 0.2 | 1.3
11 (≈ 13.5 µM) | 9 (≈ 11.1 µM) |  |  | COc1c(NC(=O)Nc2ccc(Oc3ccnc(Nc4ccc(C(=O)NCCCN5CCOCC5)c(O)c4)c3)c3ccccc23)cc(C(C)(C)C)cc1NS(C)(=O)=O [Example 29, 4-((4-((4-(3-(5-(tert-Butyl)-2-methoxy-3-(methylsulfonamido)phenyl)ureido)naphthalen-1-yl)oxy)pyridin-2-yl)amino)-2-hydroxy-N-(3-morpholinopropyl)benzamide] |  | 2.0
16 (≈ 19.1 µM) | 17 (≈ 20.3 µM) |  |  | COc1cc(Nc2cc(Oc3ccc(NC(=O)Nc4cc(C(C)(C)C)cc(NS(C)(=O)=O)c4OC)c4ccccc34)ccn2)ccc1C(=O)NC(C)CN1CCN(C)CC1 (stereo not shown) [17(bl), 4-((4-((4-(3-(5-(tert-Butyl)-2-methoxy-3-(methylsulfonamido)phenyl)ureido)naphthalen-1-yl)oxy)pyridin-2-yl)amino)-2-methoxy-N-(1-(4-methylpiperazin-1-yl)propan-2-yl)benzamide] | 0.2 | 0.5
16 (≈ 19.1 µM) | 19 (≈ 22.6 µM) |  |  | COc1cc(Nc2cc(Oc3ccc(NC(=O)Nc4cc(C(C)(C)C)cc(NS(C)(=O)=O)c4OC)c4ccccc34)ccn2)ccc1C(=O)N(C)CCN1CCN(C)CC1 [17(bh), 4-((4-((4-(3-(5-(tert-Butyl)-2-methoxy-3-(methylsulfonamido)phenyl)ureido)naphthalen-1-yl)oxy)pyridin-2-yl)amino)-2-methoxy-N-methyl-N-(2-(4-methylpiperazin-1-yl)ethyl)benzamide] |  | 0.6
